Measurements: patent US9951035B2, “Selective matrix metalloproteinase inhibitors” (University of Notre Dame du Lac, priority 2014, dated 2018)
In brackets after ≈: the same amount, converted by molar mass.

Experiments:
MMP-9 = MMP-9 (Homo sapiens (Human), UniProt P14780); details: at 50,000 nM; Gooyit et al. 2013; cited from earlier work
MMP-2 = MMP-2 (Homo sapiens (Human), UniProt P08253); details: literature / previously reported; cited from earlier work
diabetic (db/db) mice = experiment: Mouse diabetic wound model; assay type: in vivo; details: for wound healing versus vehicle: 0.25 mg/wound/day; for wound healing versus vehicle / wound closure: db/db mice; for wound closure: 0.25 mg/wound/day topical
From the text: The excisional mouse diabetic model validated by Sullivan et al. was used (Sullivan et al., Plast. Reconstr. Surg. (2004) 113, 953-960). The procedure for inflicting the wounds (single 8 mm wound on the dorsal region) was the same as described previously (Gooyit et al., ACS Chem. Biol. (2014) 9, 505-510). Wounds were photographed and covered with a sterile 3M Tegaderm™ transparent dressing (Butler Schein Animal Health, Inc.).
Female diabetic db/db (BKS.Cg-Dock7m+/+Leprdb/J, 8-weeks old, 38±3 g, n=24) were used for this study. Wounds were inflicted as described. Treatment with the MMP-2 inhibitor (50 μL of 5.0 mg/mL in 80% propylene glycol/20% DMSO, equivalent to 0.25 mg per wound) or vehicle (50 μL of 80% propylene glycol/20% DMSO) was started one day after wound infliction and continued once a day for 14 days. Digital photographs of wounds were taken on days 0, 7, 10, and 14 while the animals were under isoflurane anesthesia. On day 14, all mice were sacrificed. The wounds were excised, embedded in optimal cutting temperature (OCT) compound, and cryosectioned for histological evaluation.
Female diabetic db/db (BKS.Cg-Dock7m+/+Leprdb/J, 8-weeks old, 38±3 g, n=24) were used for this study. Wounds were inflicted and the following day the wounds were treated topically with MMP-8 (50 μL of 20 μg/mL MMP-8 in reaction buffer) or vehicle (50 μL reaction buffer) once a day for 14 days. The reaction buffer consisted of 50 mM Tris (pH 7.5), 10 mM CaCl2, 150 mM NaCl, and 0.05% (w/v) Brij-35. Digital photographs of the wounds were taken on days 0, 7, 10, and 14 while animals were under isoflurane anesthesia. On days 7 and 14, 12 mice (n=6 per group) were sacrificed. The wounds were excised, embedded in OCT compound, and cryosectioned for histological evaluation.
Photographs were taken using the procedure described by Gooyit et al. (ACS Chem Biol. (2014) 9, 505-510) at a fixed distance above the wounds and calibrated using a ruler included in the photographic frame. Image J 1.48c software was used to calculate wound areas. The percentage of wound closure was calculated from the wound area on the specified day relative to that on day 0.
Fresh wound tissue was harvested and embedded in OCT compound. Subsequently, the tissue was cryosectioned for H&E staining (12-μm thickness) and for apoptosis assays and in-situ zymography (8-μm thickness). Re-epithelialization was assessed on a Nikon Eclipse 90i Fluorescent Microscope (Nikon Instruments Inc.) as described earlier (Tkalcevic et al., Toxicol. Pathol. (2009) 37, 183-192). Apoptosis was evaluated using Derma TACS™ Apoptosis detection kits (Trevigen, Inc.) according to the manufacturer's instructions. The protocol of in-situ zymography was adapted from known methods. Gelatinolytic activity was detected in unfixed cryostat sections using DQ-gelatin as a substrate. DQ-gelatin was prepared at a concentration of 20 μg/mL in Tris-buffered saline (TBS) buffer (50 mM TBS pH 7.6, 1 mM CaCl2). A general MMP inhibitor in 0.5 mM EDTA was prepared as a negative control. Cryostat sections were air-dried for 10 min and incubated in the substrate mixture in the presence and absence of EDTA for 1 hr at room temperature. After the incubation period, the slides were washed in PBS (three times, 5 min each), fixed with 4% paraformaldehyde in PBS for 10 min in the dark, washed again with PBS (three times, 5 min each), incubated in the dark for 5 min with 300 nM DAPI solution, and mounted with anti-quenching mounting medium. Fluorescence of FITC was detected with excitation at 460-500 nm and emission at 512-542 nm. DAPI was detected with excitation at 340-380 nm and emission at 425-∞ nm.
Data are expressed as mean±SD. Wound healing between the groups in the studies were analyzed for statistical significance using a paired Student t-test, where p<0.05 was considered statistically significant.

MMP-1 = MMP-1 (Homo sapiens (Human), UniProt P03956); details: at 250 μM; data from Gooyit et al. 2014; cited from earlier work
ADAM9 = ADAM9 (Homo sapiens (Human), UniProt Q13443); experiment: Enzyme inhibition studies, ADAM9; assay type: biochemical
ADAM10 = ADAM10 (Homo sapiens (Human), UniProt O14672); experiment: Enzyme inhibition studies, ADAM10; assay type: biochemical
physchem = details: water, thermodynamic from solid
MMP-7 = MMP-7 (Homo sapiens (Human), UniProt P09237); details: at 250 μM; data from Gooyit et al. 2014; cited from earlier work
non-diabetic wounds [1] = experiment: Healing of non-diabetic wounds; assay type: in vivo, mice; details: in words
non-diabetic wounds [2] = details: rats, pigs, and humans; in words; cited from earlier work
MMP-14 = MMP-14 (Homo sapiens (Human), UniProt P50281); details: literature; cited from earlier work

MMP-7, sequence (P09237 95-267): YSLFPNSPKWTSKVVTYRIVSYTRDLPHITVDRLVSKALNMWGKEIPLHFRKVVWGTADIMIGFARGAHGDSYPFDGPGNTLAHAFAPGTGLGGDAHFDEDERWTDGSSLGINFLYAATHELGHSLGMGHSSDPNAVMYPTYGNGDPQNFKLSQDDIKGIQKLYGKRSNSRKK
ADAM10, sequence (O14672 214-672): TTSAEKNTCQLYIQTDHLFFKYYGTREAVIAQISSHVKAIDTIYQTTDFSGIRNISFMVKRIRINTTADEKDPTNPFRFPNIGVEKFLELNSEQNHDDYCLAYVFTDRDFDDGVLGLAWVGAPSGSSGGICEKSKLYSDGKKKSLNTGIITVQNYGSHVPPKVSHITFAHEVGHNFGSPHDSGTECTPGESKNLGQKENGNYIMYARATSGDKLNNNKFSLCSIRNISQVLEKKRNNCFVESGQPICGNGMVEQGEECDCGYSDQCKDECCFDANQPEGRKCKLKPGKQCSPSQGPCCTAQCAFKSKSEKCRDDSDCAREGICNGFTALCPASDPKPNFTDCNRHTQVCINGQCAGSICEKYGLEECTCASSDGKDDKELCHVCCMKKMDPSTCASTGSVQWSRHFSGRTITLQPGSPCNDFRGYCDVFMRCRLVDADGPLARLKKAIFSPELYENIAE
MMP-2, sequence (P08253 110-660): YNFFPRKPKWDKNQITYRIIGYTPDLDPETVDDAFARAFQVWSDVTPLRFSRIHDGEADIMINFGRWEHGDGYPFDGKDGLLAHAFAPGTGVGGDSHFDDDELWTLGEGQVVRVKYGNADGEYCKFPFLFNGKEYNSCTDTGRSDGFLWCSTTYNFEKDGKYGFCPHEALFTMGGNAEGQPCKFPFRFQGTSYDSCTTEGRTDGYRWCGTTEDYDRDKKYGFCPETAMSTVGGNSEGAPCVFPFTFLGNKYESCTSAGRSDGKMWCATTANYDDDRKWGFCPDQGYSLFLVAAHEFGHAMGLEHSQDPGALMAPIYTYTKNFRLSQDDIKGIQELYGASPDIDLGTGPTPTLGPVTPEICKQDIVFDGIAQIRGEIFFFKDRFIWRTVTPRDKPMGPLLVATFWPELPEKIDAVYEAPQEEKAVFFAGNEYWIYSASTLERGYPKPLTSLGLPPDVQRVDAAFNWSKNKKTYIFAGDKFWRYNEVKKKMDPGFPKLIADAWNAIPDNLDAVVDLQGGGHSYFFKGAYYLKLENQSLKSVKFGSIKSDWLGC
MMP-1, sequence (P03956 98-276): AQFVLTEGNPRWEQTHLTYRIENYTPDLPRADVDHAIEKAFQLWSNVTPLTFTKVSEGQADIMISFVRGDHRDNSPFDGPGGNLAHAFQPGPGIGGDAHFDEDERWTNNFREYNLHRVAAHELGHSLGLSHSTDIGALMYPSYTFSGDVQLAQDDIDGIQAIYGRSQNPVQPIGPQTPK
ADAM9, sequence (Q13443 206-697): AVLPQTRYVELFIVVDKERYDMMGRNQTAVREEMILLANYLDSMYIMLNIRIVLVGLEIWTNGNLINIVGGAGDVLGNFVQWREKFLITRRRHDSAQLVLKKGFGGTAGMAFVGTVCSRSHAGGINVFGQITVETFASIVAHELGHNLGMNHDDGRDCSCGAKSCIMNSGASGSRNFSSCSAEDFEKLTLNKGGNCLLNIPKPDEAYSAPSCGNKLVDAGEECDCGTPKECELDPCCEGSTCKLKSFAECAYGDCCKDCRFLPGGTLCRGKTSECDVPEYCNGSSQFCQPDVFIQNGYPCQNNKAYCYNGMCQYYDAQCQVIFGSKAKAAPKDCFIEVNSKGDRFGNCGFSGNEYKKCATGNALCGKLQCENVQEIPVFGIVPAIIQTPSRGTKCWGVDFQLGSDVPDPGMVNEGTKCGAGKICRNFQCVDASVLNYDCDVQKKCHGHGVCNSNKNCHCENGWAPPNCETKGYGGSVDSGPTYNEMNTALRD
MMP-9, sequence (P14780 107-444): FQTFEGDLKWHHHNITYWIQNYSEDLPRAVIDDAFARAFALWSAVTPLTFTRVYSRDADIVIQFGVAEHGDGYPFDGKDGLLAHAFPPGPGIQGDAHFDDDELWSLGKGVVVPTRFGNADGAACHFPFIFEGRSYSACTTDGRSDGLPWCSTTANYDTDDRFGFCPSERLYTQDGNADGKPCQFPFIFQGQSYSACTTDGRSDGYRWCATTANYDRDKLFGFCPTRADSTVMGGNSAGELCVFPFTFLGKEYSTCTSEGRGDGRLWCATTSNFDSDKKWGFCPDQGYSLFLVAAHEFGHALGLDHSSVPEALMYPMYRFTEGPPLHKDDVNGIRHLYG

Question: With CCNC(=O)Nc1ccc(Oc2ccc(S(=O)(=O)CC3CS3)cc2)cc1 (centres unmarked) [Compound 1x] as the molecule, how does the MMP-9 inhibition (MMP-9) read?
Answer: Its MMP-9 inhibition is 28%.

Question: And the “residence time bound to MMP-2” value (MMP-2)?
Answer: Its value is 24.5 min.

Question: What about the “wound healing versus vehicle” value (diabetic (db/db) mice; in words) of the same molecule?
Answer: Its value is “No significant differences”.

Question: And the “wound healing versus vehicle” value (diabetic (db/db) mice; in words, listed as MMP-2 inhibitor)?
Answer: The value was “No differences were observed between the groups”.

Question: And the re-epithelialization (diabetic (db/db) mice; H&E staining, day 14, in words)?
Answer: Its re-epithelialization is “Partial re-epithelialization”.

Question: What about the wound closure (diabetic (db/db) mice; day 7) of the same molecule?
Answer: Its wound closure is 23±16%.

Question: What about the wound closure (diabetic (db/db) mice; day 10) of the same molecule?
Answer: Its wound closure is 45±11%.

Question: And the wound closure (diabetic (db/db) mice; day 14)?
Answer: Its wound closure is 70±15%.

Question: For Nc1ccc(Oc2ccc(S(=O)(=O)CC3CS3)cc2)cc1 (centres unmarked) [Compound 2], which Inhibition (MMP-1) is on record?
Answer: Its Inhibition is 10%^i, j.

Question: And the inhibition at 20 µM (ADAM9)?
Answer: The inhibition at 20 µM was 30%.

Question: What about the inhibition at 20 µM (ADAM10) of the same molecule?
Answer: The inhibition at 20 µM was 21%.

Question: And the “healing of diabetic wounds” value (diabetic (db/db) mice; selective MMP-9 inhibition, in words)?
Answer: Its value is “healed more rapidly”.

Question: And the solubility (physchem)?
Answer: Its solubility is 4900 µg/mL (≈ 15.2 mM).

Question: And the Inhibition (MMP-7)?
Answer: Its Inhibition is 16%^i, j.

Question: And the “effect on non-diabetic wounds” value (non-diabetic wounds [1])?
Answer: Its value is “does not show any effect”.

Question: With CNC(=O)[C@H](Cc1c[nH]c2ccccc12)NC(=O)[C@@H](CC(=O)NO)CC(C)C [ilomastat] as the molecule, how does the “wound closure and epithelialization in non-diabetic wounds” value (non-diabetic wounds [2]) read?
Answer: The value was “delayed wound closure and diminished epithelialization”.

B1: TIMP-4: tissue inhibitor of metalloproteinase, protein inhibitor of MMPs (protein, UniProt Q99727 30-224, looked up)
Metalloproteinase inhibitor 4: CSCAPAHPQQHICHSALVIRAKISSEKVVPASADPADTEKMLRYEIKQIKMFKGFEKVKDVQYIYTPFDSSLCGVKLEANSQKQYLLTGQVLSDGKVFIHLCNYIEPWEDLSLVQRESLNHHYHLNCGCQITTCYTVPCTISAPNECLWTDWLLERKLYGYQAQHYVCMKHVDGTCSWYRGHLPLRKEFVDIVQP
Question: With B1 as the molecule, how does the “residence time bound to MMP-14” value (MMP-14) read?
Answer: The value was 39 min.
